Assays:
[1] = Binding affinity to polydA-polydT DNA by thermal denaturation assay
DNA = assay: Binding affinity to calf thymus DNA by thermal denaturation assay; type: nucleic-acid assay; details: Bos taurus
Nucleic Acid [2] = assay: Binding affinity to polyA-polyU double stranded RNA by thermal denaturation assay; type: nucleic-acid assay
Nucleic Acid [3] = assay: Binding affinity to polyG-polyC double stranded RNA by thermal denaturation assay; type: nucleic-acid assay

- log K [1]: 5.1
- log K (DNA): 5.1
- ΔTm (DNA): 7.3 °C
- log K (Nucleic Acid [2]): 5.1
- ΔTm (Nucleic Acid [2]): -1.5 °C
- log K (Nucleic Acid [3]): 5.1
Structure (SMILES): N=C(N)NC(=O)c1ccc(C(=O)NCCCCNC(=O)c2ccc3ccc4cccc5ccc2c3c45)[nH]1

— ChEMBL document CHEMBL1145599, “A novel pyrene-guanidiniocarbonyl-pyrrole cation efficiently differentiates between ds-DNA and ds-RNA by two independent, sensitive spectroscopic methods” (Bioorg Med Chem Lett, 2008)
